The record followed here is patent US10421743B2, “Tetrahydroisoquinolines as PRMT5 inhibitors” (CTXT PTY LTD, priority 2016, dated 2019).

pEC50: −log10 of the molar value. Like-named read-outs stand apart in the source and are kept apart here.

For assay [1], the system named is PRMT5 (symmetric dimethylation of arginine (SDMA) in MCF-7 cells). Description: PRMT5 Cell Target Engagement (TE) Assay (SDMA, high content imaging). The assay is classed as cell-based. The following applies: Homo sapiens, MCF7, 72 h, treated for 3 days, top compound concentration of 10000 nM. From the text:
PRMT5 Cell Target Engagement (TE) Assay
The PRMT5 TE assay is a biomarker assay for identifying compounds that inhibit symmetric dimethylation of arginine (SDMA) of PRMT5 substrates. This assay detects symmetrically dimethylated nuclear proteins using high content imaging technology. Detection of the expression of symmetrically dimethylated nucleo proteins is through a mixture of primary rabbit monoclonal antibodies to SDMA (CST 13222), which in turn recognized by an Alexafluor 488 dye-conjugated anti-rabbit IgG secondary antibody. The IN Cell Analyzer 2200 measures nuclear Alexafluor 488 fluorescent dye intensity that is directly related to the level of expression of symmetrically dimethylated nuclear proteins at the single cell level. Nuclear AF488 dye intensities are compared to the mean value for DMSO treated cells […] to report percent of inhibition for each compound-treated well.
In this assay, the cell potency (EC50) of each compound was determined from a ten point (1:3 serial dilution; top compound concentration of 10000 nM) titration curve using the following outlined procedure. Each well of a BD falcon collagen coated black/clear bottom 384-well plate was seeded with 4000 MCF-7 cells and allowed to attach for 5 hours. Media from cell plate was removed at 0.5 mm above the bottom of the plate and replaced with 30 μL of fresh media containing 1.2× compounds in 0.1% DMSO. Cells were treated for 3 days in 37° C. CO2 incubator. On day 3, cells were fixed with Cytofix, permeabilized with 0.4% Triton-X-100/Cytofix, and washed with D-PBS without Ca/Mg. Cells were blocked with Licor Odessey blocking reagent for one hour at room temperature, followed by incubation with anti-SDMA (1:1000) antibody at 4° C. overnight. 1° antibody was removed, followed by three washings with DPBS without Ca/Mg and 0.05% Tween20. Hoechst (5 μg/ml), Cell Mask deep stain (1:2000) and Alexa488-conjugated goat anti-rabbit IgG (2 μg/mL) was added for 1 hour at room temperature. A final washing step (three washes) was performed before sealing plate for imaging on In Cell Analyzer 2200. Images from analyzer were uploaded to Columbus (at WP) for image analysis. IC50 values were determined by 4 parameters robust fit of percent fluorescence units vs. (Log10) compound concentrations.

For assay [2], the target named is Full-length (FL)-PRMT5-MEP50 enzyme complex (Homo sapiens (Human), UniProt O14744). The assay can be described thus: PRMT5-MEP50 Enzyme Methylation Assay (SAMDI). The assay is classed as biochemical. The following applies: 0.5 nM PRMT5-MEP50, 75 nM biotinylated H4R3(Me1) peptide, 15 μM SAM, 150 minutes at 37° C. The procedure: PRMT5-MEP50 Enzyme Methylation Assay
PRMT5/MEP50 biochemical assay is a direct measurement of the methylation activity of the enzyme complex on a short peptide substrate derived from the N-terminus of H4 histone. Methylation experiment is performed with recombinant protein. The assessment of inhibitory effect (IC50) of small molecules is measured by the effectiveness of the compounds to inhibit this reaction.
In this assay, the potency (IC50) of each compound was determined from a twenty-point (1:2 serial dilution; top compound concentration of 100000 nM) titration curve using the following outlined procedure. To each well of a white ProxiPlus 384 well-plate, 100 nL of compound (1% DMSO in final assay volume of 10 μL) was dispensed, followed by the addition of 8 μL of 1× assay buffer (50 mM Bicine pH 8.0, 1 mM DTT, 0.004% Tween20, 0.01% BSA) containing 0.5 nM of Full-length (FL)-PRMT5-MEP50 enzyme complex (recombinant proteins from baculovirus-transfected Sf21 cells: FL-PRMT5; MW=[…] and FL-MEP50; MW=38614). Plates were sealed and placed in a 37° C. humidified chamber for 30 minutes pre-incubation with compounds. Subsequently, each reaction was initiated by the addition of 2 μL 1× assay buffer containing 75 nM biotinylated H4R3(Me1) peptide, and 15 μM S-(5′-Adenosyl)-L-Methionine Chloride (SAM). The final reaction in each well of 10 μL consists of 0.5 nM PRMT5-MEP50,75 nM biotinylated-peptide, and 15 μM SAM. Methylation reactions were allowed to proceed for 150 minutes in a sealed plate at 37° C. Reactions were immediately quenched by the addition of 1 μL of 10% formic acid. Plates were then frozen and shipped to SAMDI™ Tech Inc. to determine the percent conversion from […]. IC50 values were determined by 7 parameters biphasic fit model plotting the percent product conversion vs. (Log10) compound concentrations.

Where [3] appears, read: first EC50 of biphasic fit, read-out: Enzyme Methylation Assay (EC50—1).
Setting [4] is: second EC50 of biphasic fit, read-out: Enzyme Methylation Assay (EC50—2).

Chain of Full-length (FL)-PRMT5-MEP50 enzyme complex (O14744 whole entry): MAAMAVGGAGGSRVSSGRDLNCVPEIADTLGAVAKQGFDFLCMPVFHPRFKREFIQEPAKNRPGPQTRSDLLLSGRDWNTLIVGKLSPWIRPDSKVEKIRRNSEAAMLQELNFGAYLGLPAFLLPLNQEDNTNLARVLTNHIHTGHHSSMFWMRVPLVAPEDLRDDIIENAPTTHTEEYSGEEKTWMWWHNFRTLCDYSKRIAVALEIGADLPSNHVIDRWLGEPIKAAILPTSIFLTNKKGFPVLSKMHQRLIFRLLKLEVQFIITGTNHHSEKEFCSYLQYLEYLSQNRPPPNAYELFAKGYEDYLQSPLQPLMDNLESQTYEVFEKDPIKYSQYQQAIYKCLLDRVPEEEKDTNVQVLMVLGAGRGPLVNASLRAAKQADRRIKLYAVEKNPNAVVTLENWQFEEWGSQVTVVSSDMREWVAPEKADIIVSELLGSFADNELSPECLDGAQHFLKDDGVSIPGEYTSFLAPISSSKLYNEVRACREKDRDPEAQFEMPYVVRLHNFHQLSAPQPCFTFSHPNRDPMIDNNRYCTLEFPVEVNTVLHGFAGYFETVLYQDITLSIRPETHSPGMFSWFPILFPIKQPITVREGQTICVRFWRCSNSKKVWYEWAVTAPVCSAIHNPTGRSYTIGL
Chain of Full-length (FL)-PRMT5-MEP50 enzyme complex (Q9BQA1 whole entry partner): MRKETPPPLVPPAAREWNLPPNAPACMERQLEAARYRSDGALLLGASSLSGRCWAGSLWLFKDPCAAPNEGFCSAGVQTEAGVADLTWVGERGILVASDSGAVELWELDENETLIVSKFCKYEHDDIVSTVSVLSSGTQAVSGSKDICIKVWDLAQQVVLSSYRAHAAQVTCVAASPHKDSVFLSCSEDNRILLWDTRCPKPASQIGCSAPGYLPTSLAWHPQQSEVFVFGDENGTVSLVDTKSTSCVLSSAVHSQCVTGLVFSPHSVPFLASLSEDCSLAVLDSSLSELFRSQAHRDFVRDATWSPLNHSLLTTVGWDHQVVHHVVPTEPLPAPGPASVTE

Take `COc1ccc2c(c1)CN[C@H]([C@H](O)CNC(=O)c1cccnc1)C2` [Example 12]: the results for the pEC50 in assay [1], in assay [2] (setting [3]) and in assay [2] (setting [4]) were 5.33, 7.49 and 4.94, respectively.

Consider `COc1ccc2c(c1)CN[C@H]([C@H](O)CNC(=O)c1ccc(-c3ncc4n3CCCC4)cc1)C2` [Example 8], for which the results for the pEC50 in assay [1], in assay [2] (setting [3]) and in assay [2] (setting [4]) were 7.10, 9.21 and 6.65, respectively.

For `CC(=O)N1CCC(Nc2cc(C(=O)NC[C@@H](O)[C@@H]3Cc4ccc(C(F)(F)F)cc4CN3)ncn2)CC1` [Example 15], the negative logarithm of the EC50 (pEC50) (in general, the negative decadic logarithm of the EC50, by convention in mol/L) in assay [1] is 5.66; in assay [2] (setting [3]), 7.64; in assay [2] (setting [4]) it was 5.14.

Take `CC(=O)N1CCC(Nc2cc(C(=O)NC[C@@H](O)[C@@H]3Cc4ccc(C#N)cc4CN3)ncn2)CC1` [Example 17]: the pEC50 is 5.00 in assay [1], 6.74 in assay [2] (setting [3]) and 4.46 in assay [2] (setting [4]).

As for `COc1ccc2c(c1)CN[C@H]([C@H](O)CNC(=O)c1ccc(-c3ncnn3C3CC3)cc1)C2` [Example 9], the pEC50 in assay [1] is 7.15; in assay [2] (setting [3]), 9.25; in assay [2] (setting [4]), 6.48.

Regarding `CCc1ccc2c(c1)CN[C@H]([C@H](O)CNC(=O)c1cc(NC3CCN(C(C)=O)CC3)ncn1)C2` [Example 16], the pEC50 in assay [1] is 6.07; in assay [2] (setting [3]), 8.15; in assay [2] (setting [4]), 5.43.

Take `CCOc1cc(-c2nnc(C3CC3)o2)ccc1C(=O)NC[C@@H](O)[C@@H]1Cc2ccc(OC)cc2CN1` [Example 6, 4-(5-cyclopropyl-1,3,4-oxadiazol-2-yl)-2-ethoxy-N-{(2R)-2-hydroxy-2-[(3S)-7-methoxy-1,2,3,4-tetrahydroisoquinolin-3-yl]ethyl}benzamide]: the values for the pEC50 in assay [1], in assay [2] (setting [3]) and in assay [2] (setting [4]) were 6.69, 8.70 and 6.11, respectively.

Consider `CCOc1cc(-c2nnc(C)o2)ccc1C(=O)NC[C@@H](O)[C@@H]1Cc2ccc(OC)cc2CN1` [Example 5, 2-ethoxy-N-{(2R)-2-hydroxy-2-[(3S)-7-methoxy-1,2,3,4-tetrahydroisoquinolin-3-yl]ethyl}-4-(5-methyl-1,3,4-oxadiazol-2-yl)benzamide], for which the pEC50 in assay [1] is 5.67; in assay [2] (setting [3]), 8.70; in assay [2] (setting [4]), 6.05.

With `O=C(NC[C@@H](O)[C@@H]1Cc2ccc(C(F)F)cc2CN1)c1ccc(C(=O)N2C3CCC2COC3)cc1` [Example 11], the pEC50 in assay [1] was 6.87; in assay [2] (setting [4]), 6.35. Moreover, in assay [2] (Enzyme Methylation Assay (EC50—1, nM), first EC50 of biphasic fit), the response was half-maximal at 0.93 nM (EC50).

Regarding `COc1ccc2c(c1)CN[C@H]([C@H](O)CNC(=O)c1ccccc1Cl)C2` [Example 14], the pEC50 in assay [1] is 5.49; in assay [2] (setting [3]), 7.92; in assay [2] (setting [4]), 5.37.

Turning to `CCOc1ncccc1C(=O)NC[C@@H](O)[C@@H]1Cc2ccc(OC)cc2CN1` [Example 13], the pEC50 in assay [1] was 5.33; in assay [2] (setting [3]), 7.68; in assay [2] (setting [4]), 5.09.

With `COc1ccc2c(c1)CN[C@H]([C@H](O)CNC(=O)c1ccc(-c3nnc(C(C)(C)C)o3)cc1)C2` [Example 7], the values for the pEC50 in assay [1], in assay [2] (setting [3]) and in assay [2] (setting [4]) were 6.78, 8.52 and 6.00, respectively.

Consider `COc1ccc2c(c1)CN[C@H]([C@H](O)CNC(=O)c1cc(NC3COC3)ncn1)C2` [Example 4, N—((R)-2-hydroxy-2-((S)-7-methoxy-1,2,3,4-tetrahydroisoquinolin-3-yl)ethyl)-6-(oxetan-3-ylamino)pyrimidine-4-carboxamide], for which the pEC50 in assay [2] (setting [3]) was 7.68; in assay [2] (setting [4]) it was 5.07.

With `COC(=O)N1CCC(Nc2cc(C(=O)NC[C@@H](O)[C@@H]3Cc4ccc(OC)cc4CN3)ccn2)CC1` [Example 18], the results for the pEC50 in assay [1], in assay [2] (setting [3]) and in assay [2] (setting [4]) were 7.72, 9.10 and 6.73, respectively.
